# Key:
# [1] = Lipophilicity by reversed-phase thin-layer chromatography (RP-TLC), isopropanol-water mobile phase; assay type: physicochemical; details: RP-18F254s TLC, iso-propanol-water 45-65% (v/v); for RM0 (lipophilicity estimation parameter, intercept of RM = RM0 + bC): extrapolated to pure water
# Protocol: Some of the parameters resulting from a RP-TLC may be associated to the lipophilic character of the analytes. The retention parameters (RM) are calculated by means of well-known Batte-Smith and Westall Equation (1): RM = log (1/RF − 1) (1)
# Generally, the RM values determined by RP-TLC are linearly dependent on the concentration of the organic modifier (C) in the mobile phase Equation (2): RM = RM0 + bC (2) where b and RM0 are, respectively, the slope and the intercept of Equation (2). […] Additionally, it has been stated that not only the RM0, but also the slope, b, as a characteristic of the specific hydrophobic surface area of the compounds, can be used as an estimation of lipophilicity. The advantages of TLC methods consist in the small quantity of compounds needed for the determination, and the rapidity and simplicity of the method. Also, they are inexpensive, rapid and easy to perform.
# Chromatography was performed on 20 × 20 cm RP-18F254s TLC precoated silica plates (Merck; Darmstadt, Germany). Solutions (1 mg/mL) of the tested compounds were prepared in iso-propanol, and 3 μL aliquots were spotted in duplicate on the plates by hand, 10 mm from the bottom edge and 20 mm apart. The mobile phases were composed of the iso-propanol-water binary mixtures, with a varying content of organic modifier between 45% and 65% (v/v) in 5% increments, as the study compounds differed considerably in their retention. Chromatography was performed in a normal developing chamber at room temperature, the developing distance being 10 cm. The chromatography chamber was saturated with the mobile phase for 30 min before use. After the development (30–60 min), the plates were air dried at room temperature and examined under a UV lamp (λ = 254 nm), and the RF (retardation factor) values were measured manually by a digital caliper. The experiments were performed in triplicate.
# oxidative stress = tested on: oxidative stress; parameters: method as in PMID 23504664; details: turpentine oil-induced inflammation, mean ± SD; cited from earlier work
# [2] = tested on: turpentine oil-induced inflammation; parameters: method as in PMID 23504664; Leukocytes (L, leukocytes count):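 lower leukocyte count means stronger anti-inflammatory effect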; details: mean ± SD; cited from earlier work
# phagocytes = tested on: phagocytes; parameters: method as in PMID 23504664; details: turpentine oil-induced inflammation, mean ± SD; cited from earlier work
# [3] = tested on: nitric oxide (NO) synthesis; parameters: method as in PMID 23504664; unit not given here; details: turpentine oil-induced inflammation, mean ± SD; cited from earlier work
Compound,"b (slope of RM = RM0 + bC, specific hydrophobic surface area) [1]","RM0 (lipophilicity estimation parameter, intercept of RM = RM0 + bC) [1]",OSI (oxidative stress index) (oxidative stress),TAR (total antioxidant response) (oxidative stress),TOS (total oxidative status) (oxidative stress),"Leukocytes (L, leukocytes count) [2]","PMN (polymorphonuclear leukocytes, differential leucocyte count) [2] [%]",PA (phagocytic activity) (phagocytes),PI (phagocytosis index) (phagocytes) [%],NO (nitric oxide synthesis) [3]
Cc1nc(-c2ccccc2)sc1-c1nnc(S)n1-c1ccccc1 [Th-9],−2.630,1.479,6.25 ± 5.2,1.101 ± 0.001,68.780 ± 16.2,9000 ± 428,67.4 ± 3.0,20.5 ± 0.9,21 ± 7.0,65.479 ± 4.8
C=CCNC(=S)NNC(=O)c1sc(-c2ccccc2)nc1C [Th-7],−2.484,1.195,3.98 ± 3.8,1.107 ± 0.003,44.073 ± 3.8,6356.25 ± 66,73.2 ± 4.0,53.5 ± 3.5,20.5 ± 0.9,54.355 ± 6.2
CNC(=S)NNC(=O)c1sc(-c2ccc(C)cc2)nc1C [Th-5],−2.502,1.161,4.7 ± 3.1,1.096 ± 0.001,51.557 ± 17.1,"11,633.3 ± 154",59.8 ± 3.6,22.5 ± 0.9,19.5 ± 2.3,47.024 ± 8.9
Cc1nc(-c2ccccc2)sc1-c1nnc(S)o1 [Th-18],−1.840,0.540,6.98 ± 4.1,1.118 ± 0.006,78.089 ± 14.1,4575 ± 805,63.7 ± 2.4,56 ± 8.6,17 ± 1.9,43.23 ± 3.9
CNC(=S)NNC(=O)c1sc(-c2ccc(Br)cc2)nc1C [Th-6],−2.740,1.398,3.93 ± 2.6,1.097 ± 0.006,43.108 ± 5.6,6056.25 ± 862,70.4 ± 2.9,18 ± 1.5,13 ± 3.2,50.591 ± 9.1

# Continued, in another order:
"b (slope of RM = RM0 + bC, specific hydrophobic surface area) [1]","RM0 (lipophilicity estimation parameter, intercept of RM = RM0 + bC) [1]",Compound,OSI (oxidative stress index) (oxidative stress),TAR (total antioxidant response) (oxidative stress),TOS (total oxidative status) (oxidative stress),"Leukocytes (L, leukocytes count) [2]","PMN (polymorphonuclear leukocytes, differential leucocyte count) [2] [%]",PA (phagocytic activity) (phagocytes),PI (phagocytosis index) (phagocytes) [%],NO (nitric oxide synthesis) [3]
−1.283,0.393,Cc1nc(-c2ccc(Br)cc2)sc1-c1nnc(S)o1 [Th-20],7.32 ± 3.2,1.106 ± 0.003,81.022 ± 13.2,4837.5 ± 1305,59.2 ± 5.6,20 ± 1.5,16 ± 3.0,43.288 ± 5.0
−2.685,1.398,C=CCNC(=S)NNC(=O)c1sc(-c2ccc(C)cc2)nc1C [Th-8],5.03 ± 4.1,1.107 ± 0.002,55.664 ± 4.2,5718.75 ± 104,66.6 ± 1.0,21 ± 1.1,21.5 ± 0.9,48.793 ± 5.5

# Source: paper PMC6332165, “Study of the Relationships between the Structure, Lipophilicity and Biological Activity of Some Thiazolyl-carbonyl-thiosemicarbazides and Thiazolyl-azoles” (Molecules, 2015)
